We go through two molecules from ChEMBL document CHEMBL1149508, “From arylureas to biarylamides to aminoquinazolines: discovery of a novel, potent TRPV1 antagonist” (Bioorg Med Chem Lett, 2006).

For series [1], the target named is T1, Transient receptor potential cation channel subfamily V member 1 (Homo sapiens, UniProt Q8NER1). The series can be described thus: Antagonist activity against capsaicin-activated human VR1 by FLIPR assay. The series is classed as functional.
Series [2] addresses Transient receptor potential cation channel subfamily V member 1 (Rattus norvegicus, UniProt O35433). As to the kind of experiment: Antagonist activity against low pH(5.0-5.5)-activated rat VR1. The series is classed as functional.
A short description of series [3]: Bioavailability in rat. The class given is ADME, organism-based. The following applies: in vivo.
The nature of series [4]: Half life in rat at 3 mg/kg, iv. The series is classed as ADME, organism-based. Also noted: dose 3 mg/kg, route intravenous. The following applies: in vivo.
Series [5] is described as follows: Clearance in rat at 3 mg/kg, iv. The class given is ADME, organism-based. Also noted: dose 3 mg/kg, route intravenous. The conditions noted are these: in vivo.
Series [6] in a line: Volume of distribution in rat at 3 mg/kg, iv. The series is classed as ADME, organism-based. Set-up: dose 3 mg/kg, route intravenous. The conditions noted are these: in vivo, read-out: Vdss.
Series [7] can be described thus: Tmax in rat at 3 mg/kg, iv. The following applies: in vivo. The series is classed as ADME, organism-based. Also noted: dose 3 mg/kg, route intravenous.
Series [8] is described as follows: Bioavailability in rat at 3 mg/kg, iv. The class given is ADME, organism-based. The conditions noted are these: in vivo.
The target of series [9] is T1, Transient receptor potential cation channel subfamily V member 1. As to the kind of experiment: Agonist activity at human VR1 expressed in HEK293 cells upto 4 uM. The class given is functional, cell-based.

Active and inactive are the calls of the source.

T1 sequence (Q8NER1 whole entry): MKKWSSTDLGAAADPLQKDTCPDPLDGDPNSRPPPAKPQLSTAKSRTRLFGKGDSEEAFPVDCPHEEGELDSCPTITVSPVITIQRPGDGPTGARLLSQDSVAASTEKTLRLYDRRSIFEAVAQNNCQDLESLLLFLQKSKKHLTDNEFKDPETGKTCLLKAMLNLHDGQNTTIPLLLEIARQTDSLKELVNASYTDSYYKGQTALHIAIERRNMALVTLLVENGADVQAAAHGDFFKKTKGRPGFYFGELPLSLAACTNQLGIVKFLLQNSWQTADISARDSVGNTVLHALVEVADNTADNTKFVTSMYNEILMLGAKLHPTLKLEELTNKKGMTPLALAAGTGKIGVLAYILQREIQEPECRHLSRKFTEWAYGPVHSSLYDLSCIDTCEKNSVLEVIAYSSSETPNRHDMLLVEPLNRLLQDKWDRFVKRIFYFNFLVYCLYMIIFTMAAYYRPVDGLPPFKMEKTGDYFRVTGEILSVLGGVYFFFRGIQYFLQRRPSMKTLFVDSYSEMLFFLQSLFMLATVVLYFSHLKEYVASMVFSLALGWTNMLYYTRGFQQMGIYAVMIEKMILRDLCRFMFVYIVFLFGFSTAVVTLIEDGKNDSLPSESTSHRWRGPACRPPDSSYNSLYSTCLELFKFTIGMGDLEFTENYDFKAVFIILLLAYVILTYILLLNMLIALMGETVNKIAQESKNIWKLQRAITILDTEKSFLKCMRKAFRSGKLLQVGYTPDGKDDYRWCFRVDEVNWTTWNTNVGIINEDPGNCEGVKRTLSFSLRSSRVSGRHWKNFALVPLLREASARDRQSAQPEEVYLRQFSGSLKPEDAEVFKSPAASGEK
Transient receptor potential cation channel subfamily V member 1 (Rattus norvegicus, UniProt O35433), sequence (O35433 whole entry): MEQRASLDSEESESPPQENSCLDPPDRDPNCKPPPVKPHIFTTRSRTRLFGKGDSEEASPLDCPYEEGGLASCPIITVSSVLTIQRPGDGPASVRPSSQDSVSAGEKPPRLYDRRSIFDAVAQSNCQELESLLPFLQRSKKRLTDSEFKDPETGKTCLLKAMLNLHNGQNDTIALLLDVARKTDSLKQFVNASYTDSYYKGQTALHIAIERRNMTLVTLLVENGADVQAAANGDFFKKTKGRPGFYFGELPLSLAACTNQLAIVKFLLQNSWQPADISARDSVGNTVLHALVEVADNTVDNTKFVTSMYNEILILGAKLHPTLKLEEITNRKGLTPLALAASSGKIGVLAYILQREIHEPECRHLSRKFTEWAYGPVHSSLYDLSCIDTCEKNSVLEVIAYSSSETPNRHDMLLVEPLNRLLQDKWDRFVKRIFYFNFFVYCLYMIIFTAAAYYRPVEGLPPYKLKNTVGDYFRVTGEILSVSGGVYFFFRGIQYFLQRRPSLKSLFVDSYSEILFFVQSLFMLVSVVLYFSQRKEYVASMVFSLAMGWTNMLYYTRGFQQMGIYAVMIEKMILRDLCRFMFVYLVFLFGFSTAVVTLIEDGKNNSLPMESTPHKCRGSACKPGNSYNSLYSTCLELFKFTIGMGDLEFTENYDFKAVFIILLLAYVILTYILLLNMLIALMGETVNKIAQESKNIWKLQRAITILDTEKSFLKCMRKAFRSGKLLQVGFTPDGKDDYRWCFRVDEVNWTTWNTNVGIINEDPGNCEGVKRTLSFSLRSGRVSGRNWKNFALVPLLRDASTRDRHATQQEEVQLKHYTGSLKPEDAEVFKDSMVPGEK

A word on the IC50: it is the concentration that gives 50% inhibition. Read a low IC50 as greater potency. One may read the bioavailability as the share of a dose that reaches the circulation, judged against a reference dose that is usually intravenous. For the molecule `CC(C)(C)c1ccc(NC(=O)c2ccc(-c3ncccc3C(F)(F)F)cc2)cc1`, the IC50 in series [1] amounted to 6 nM; in series [2] it was 4 nM. The same molecule showed a bioavailability in [3] of 2%.

As a reminder, the half-life is the time needed for the level to fall by half in the phase considered. Read a low half-life as rapid decline. A word on the clearance: it is the volume of plasma or blood freed of the substance per unit of time. Low values mean a low capacity for elimination, high ones a high capacity for elimination. As usually defined, the Tmax is the time from dosing to the highest level. Turning to `C[C@@H]1CN(c2ncccc2C(F)(F)F)CCN1C(=O)Nc1ccc(C(F)(F)F)cc1`, the IC50 amounted to 17 nM in series [1] and 11 nM in series [2]. Also, in series [4], the half-life is 7.2 h. The molecule also gave a clearance in series [5] of 39 mL/min/kg. The Vd in series [6] worked out at 12 L/kg. The Tmax in [7] was 0.5 h. This molecule gave a bioavailability in series [8] of 27%. In series [9], the result was inactive.
